# Several values for one entry are separate records, joined by “and”; a condition that tells them apart may be missing. Equal values may be shown once.
# Experiment: Particle Size Distribution of zilpaterol hydrochloride batches
# Assay type: physicochemical
# Conditions: batches from crystallization process of Examples 4
# Text: As used herein, particle size refers to a number particle size as measured by conventional particle size measuring techniques well known to those skilled in the art, such as laser scattering, sedimentation field flow fractionation, photon correlation spectroscopy, or disk centrifugation.
# The particle size measurement indicated as Particle Size Distribution (relative amounts of particles present, sorted according to size) can be e.g. performed with a Malvern Mastersizer 2000 with the Hydro 2000G measuring cell, or with a Horiba LA-910 laser scattering particle size distribution analyzer.
smiles,measurement,setting,value
"CC(C)N[C@@H]1CCn2c(=O)[nH]c3cccc(c32)[C@H]1O (racemic) [Example 3, trans-(±)-4,5,6,7-tetrahydro-7-hydroxy-6-[(1-methylethyl)amino]-imidazo[4,5,1-jk][1]benzazepin-2(1H)-one]",Particle size Distribution <=15 μm,relative amount of crystal particles with size <=15 μm,2.9% and 1.6% and 3.0%
same,Particle size Distribution >=200 μm,relative amount of crystal particles with size >=200 μm,7.8% and 14.3% and 11.0%
same,Particle size Distribution >=250 μm,relative amount of crystal particles with size >=250 μm,0.3% and 1.7% and 0.8%
same,Particle size Distribution >=300 μm,relative amount of crystal particles with size >=300 μm,0% and 0.2%
